Here are results for 36 compounds from patent US9018388B2, “Pesticidal compositions and processes related thereto” (Dow AgroSciences LLC, priority 2012, dated 2015).

Experiment [1] has as its system Corn Earworm (CEW) (Helicoverpa zea). The experiment in a line: Bioassay on corn earworm (CEW), 128-well diet tray assay. It is filed as in vivo. The conditions noted are these: Helicoverpa zea; Corn earworm, 50 μg/cm^2; read-out: % Mortality CEW 50 μg/cm^2. On the procedure: (§1) Bioassays on Beet Armyworm (“BAW”) and Corn Earworm (“CEW”)
(§2) Certain molecules disclosed in this document were tested against BAW and CEW using procedures described in the following examples. In the reporting of the results, the “BAW & CEW Rating Table” was used (See Table Section).
Bioassays on CEW (Helicoverpa zea)
Bioassays on CEW were conducted using a 128-well diet tray assay. One to five second instar CEW larvae were placed in each well (3 mL) of the diet tray that had been previously filled with 1 mL of artificial diet to which 50 μg/cm^2 of the test compound (dissolved in 50 μL of 90:10 acetone-water mixture) had been applied (to each of eight wells) and then allowed to dry. Trays were covered with a clear self-adhesive cover and held at 25° C., 14:10 light-dark for five to seven days. Percent mortality was recorded for the larvae in each well; activity in the eight wells was then averaged. The results are indicated in the table entitled “Table 5: Biological Results” (See Table Section).

Experiment [2] has as its system Beet Armyworm (BAW) (Spodoptera exigua). Kind of experiment: Bioassay on beet armyworm (BAW), 128-well diet tray assay. It is filed as in vivo. The conditions noted are these: Spodoptera exigua; Beet armyworm, 50 μg/cm^2; read-out: % Mortality BAW 50 μg/cm^2. On the procedure:
as §1, §2
Bioassays on BAW (Spodoptera exigua)
Bioassays on BAW were conducted using a 128-well diet tray assay. One to five second instar BAW larvae were placed in each well (3 mL) of the diet tray that had been previously filled with 1 mL of artificial diet to which 50 μg/cm^2 of the test compound (dissolved in 50 μL of 90:10 acetone-water mixture) had been applied (to each of eight wells) and then allowed to dry. Trays were covered with a clear self-adhesive cover and held at 25° C., 14:10 light-dark for five to seven days. Percent mortality was recorded for the larvae in each well; activity in the eight wells was then averaged. The results are indicated in the table entitled “Table 5: Biological Results” (See Table Section).

Structures are written as SMILES.

For the compound `CCCS/C(=N\c1c(Cl)cccc1Cl)N/N=C/c1ccc(-c2ncn(-c3ccc(OC(F)(F)F)cc3)n2)cc1` [Compound 3C], the pest or weed control at 50 µg/cm2, 50 µg/cm2 in experiment [1] and in experiment [2] was 50 to 100% throughout.
Consider `COCOCC(C)C(=O)OCS/C(=N\c1c(C)cccc1C)N/N=C/c1ccc(-c2ncn(-c3ccc(OC(F)(F)F)cc3)n2)cc1` (stereo not drawn) [Compound 41C], for which the pest or weed control at 50 µg/cm2, 50 µg/cm2 in experiment [1] and in experiment [2] was 50 to 100% each time.
On to `C/C(=N\N=C1/SCN1c1ccccc1C(C)C)c1ccc(-c2ncn(-c3ccc(OC(F)(F)F)cc3)n2)cc1` [Compound 248C], for which the pest or weed control at 50 µg/cm2, 50 µg/cm2 in experiment [1] and in experiment [2] was 50 to 100% in each case.
As to `COc1ccc(N2C(=O)CCS/C2=N\N=C\c2ccc(-c3ncn(-c4ccc(OC(F)(F)F)cc4)n3)cc2)c(C)c1` [Compound 231C], the pest or weed control at 50 µg/cm2, 50 µg/cm2 in experiment [1] and in experiment [2] was 50 to 100% throughout.
For the compound `CC(C)c1ccccc1N1CS/C1=N\N=C\c1ccc(-c2ncn(-c3ccc(OC(F)(F)C(F)(F)F)cc3)n2)cc1` [Compound 247C], the pest or weed control at 50 µg/cm2, 50 µg/cm2 in experiment [1] and in experiment [2] was 50 to 100% throughout.
On to `COc1ccc(N2/C(=N/N=C/c3ccc(-c4ncn(-c5ccc(OC(F)(F)F)cc5)n4)cc3)SCC2C)c(C)c1` (stereo not drawn) [Compound 162C], for which the pest or weed control at 50 µg/cm2, 50 µg/cm2 in experiment [1] and in experiment [2] was 50 to 100% throughout.
For `CC(C)c1ccccc1N1CCCCS/C1=N\N=C\c1ccc(-c2ncn(-c3ccc(OC(F)(F)F)cc3)n2)cc1` [Compound 212C], the pest or weed control at 50 µg/cm2, 50 µg/cm2 in experiment [1] and in experiment [2] was 50 to 100% throughout.
For `CC(C)(C)c1ccccc1N1C(=O)CS/C1=N\N=C\c1ccc(-c2ncn(-c3ccc(OC(F)(F)F)cc3)n2)cc1` [Compound 125C], the pest or weed control at 50 µg/cm2, 50 µg/cm2 in experiment [1] and in experiment [2] was 50 to 100% in each case.
As to `COc1cc(C)c(/N=C(/N/N=C/c2ccc(-c3ncn(-c4ccc(OC(F)(F)F)cc4)n3)cc2)SCC(=O)NCCCNC(=O)OC(C)(C)C)c(C)c1` [Compound 60C], the pest or weed control at 50 µg/cm2, 50 µg/cm2 in experiment [1] and in experiment [2] was 50 to 100% throughout.
Consider `CC(C)c1ccc(F)cc1N1CS/C1=N\N=C\c1ccc(-c2ncn(-c3ccc(C(F)(F)C(F)(F)F)cc3)n2)cc1` [Compound 260C], for which the pest or weed control at 50 µg/cm2, 50 µg/cm2 in experiment [1] and in experiment [2] was 50 to 100% in each case.
For `CC(C)c1ccccc1N1CCCS/C1=N\N=C\c1ccc(-c2ncn(-c3ccc(C(F)(F)F)cc3)n2)cc1` [Compound 179C], the pest or weed control at 50 µg/cm2, 50 µg/cm2 in experiment [1] and in experiment [2] was 50 to 100% throughout.
Turning to `Fc1cccc(F)c1N1CCS/C1=N\N=C\c1ccc(-c2ncn(-c3ccc(OC(F)(F)F)cc3)n2)cc1` [Compound 148C], the pest or weed control at 50 µg/cm2, 50 µg/cm2 in experiment [1] and in experiment [2] was 50 to 100% in each case.
As to `FC(F)(F)Oc1ccc(-n2cnc(-c3ccc(/C=N/N=C4\SCN4c4c(Cl)cccc4Cl)cc3)n2)cc1` [Compound 244C], the pest or weed control at 50 µg/cm2, 50 µg/cm2 in experiment [1] and in experiment [2] was 50 to 100% throughout.
In the case of `COc1cc(C)c(N2CS/C2=N\N=C\c2ccc(-c3ncn(-c4ccc(OC(F)(F)F)cc4)n3)cc2)c(C)c1` [Compound 242C], the pest or weed control at 50 µg/cm2, 50 µg/cm2 in experiment [1] and in experiment [2] was 50 to 100% in each case.
Regarding `CC(C)c1ccccc1N1/C(=N/N=C/c2ccc(-c3ncn(-c4ccc(OC(F)(F)F)cc4)n3)cc2)SCC1C` (racemic) [Compound 155C], the pest or weed control at 50 µg/cm2, 50 µg/cm2 in experiment [1] and in experiment [2] was 50 to 100% each time.
For `Cc1cccc(C)c1-n1c(C)cs/c1=N\N=C\c1ccc(-c2ncn(-c3ccc(OC(F)(F)F)cc3)n2)cc1` [Compound 175C], the pest or weed control at 50 µg/cm2, 50 µg/cm2 in experiment [1] and in experiment [2] was 50 to 100% throughout.
Turning to `CC(C)c1ccccc1N1CS/C1=N\N=C\c1ccc(-c2ncn(-c3ccc4c(c3)OC(F)(F)O4)n2)cc1` [Compound 249C], the pest or weed control at 50 µg/cm2, 50 µg/cm2 in experiment [1] and in experiment [2] was 50 to 100% throughout.
On to `CC1CCS/C(=N\N=C\c2ccc(-c3ncn(-c4ccc(OC(F)(F)F)cc4)n3)cc2)N1c1ccccc1OC(F)(F)F` (stereo not drawn) [Compound 216C], for which the pest or weed control at 50 µg/cm2, 50 µg/cm2 in experiment [1] and in experiment [2] was 50 to 100% each time.
Consider `CC(C)c1ccc(F)cc1N1CS/C1=N\N=C\c1ccc(-c2ncn(-c3ccc(OC(F)(F)F)cc3)n2)cc1` [Compound 251C], for which the pest or weed control at 50 µg/cm2, 50 µg/cm2 in experiment [1] and in experiment [2] was 50 to 100% throughout.
Consider `Cc1cccc(Cl)c1N1C(=O)CS/C1=N\N=C\c1ccc(-c2ncn(-c3ccc(OC(F)(F)F)cc3)n2)cc1` [Compound 93C], for which the pest or weed control at 50 µg/cm2, 50 µg/cm2 in experiment [1] and in experiment [2] was 50 to 100% in each case.
As for `COc1ccc(N2CCS/C2=N\N=C\c2ccc(-c3ncn(-c4ccc(OC(F)(F)F)cc4)n3)cc2)c(C)c1` [Compound 137C], the pest or weed control at 50 µg/cm2, 50 µg/cm2 in experiment [1] and in experiment [2] was 50 to 100% in each case.
As for `COc1ccc(N2C(=O)CS/C2=N\N=C\c2ccc(-c3ncn(-c4ccc(OC(F)(F)F)cc4)n3)cc2)c(C)c1` [Compound 114C], the pest or weed control at 50 µg/cm2, 50 µg/cm2 in experiment [1] and in experiment [2] was 50 to 100% in each case.
Turning to `Cc1cs/c(=N\N=C\c2ccc(-c3ncn(-c4ccc(OC(F)(F)F)cc4)n3)cc2)n1-c1c(Cl)cccc1C(F)(F)F` [Compound 169C], the pest or weed control at 50 µg/cm2, 50 µg/cm2 in experiment [1] and in experiment [2] was 50 to 100% each time.
In the case of `O=C1CS/C(=N\N=C\c2ccc(-c3ncn(-c4ccc(OC(F)(F)F)cc4)n3)cc2)N1c1c(F)cccc1F` [Compound 89C], the pest or weed control at 50 µg/cm2, 50 µg/cm2 in experiment [1] and in experiment [2] was 50 to 100% throughout.
For the compound `Cc1cccnc1N1C(=O)CS/C1=N\N=C\c1ccc(-c2ncn(-c3ccc(OC(F)(F)F)cc3)n2)cc1` [Compound 117C], the pest or weed control at 50 µg/cm2, 50 µg/cm2 in experiment [1] and in experiment [2] was 50 to 100% in each case.
Turning to `COc1cc(C)c(/N=C(\N/N=C/c2ccc(-c3ncn(-c4ccc(C(F)(F)F)cc4)n3)cc2)SCOC(=O)CNC(=O)OCc2ccccc2)c(C)c1` [Compound 45C], the pest or weed control at 50 µg/cm2, 50 µg/cm2 in experiment [1] and in experiment [2] was 50 to 100% in each case.
In the case of `O=C1CS/C(=N\N=C\c2ccc(-c3cn(-c4ccc(OC(F)(F)F)cc4)cn3)cc2)N1c1c(Cl)cccc1Cl` [Compound 102C], the pest or weed control at 50 µg/cm2, 50 µg/cm2 in experiment [1] and in experiment [2] was 50 to 100% in each case.
As for `CC(C)c1cc(F)ccc1N1CS/C1=N\N=C\c1ccc(-c2ncn(-c3ccc(OC(F)(F)F)cc3)n2)cc1` [Compound 252C], the pest or weed control at 50 µg/cm2, 50 µg/cm2 in experiment [1] and in experiment [2] was 50 to 100% in each case.
On to `Cc1cc(C)c(N2/C(=N/N=C/c3ccc(-c4ncn(-c5ccc(OC(F)(F)F)cc5)n4)cc3)SCCC2C)c(C)c1` (stereo not drawn) [Compound 218C], for which the pest or weed control at 50 µg/cm2, 50 µg/cm2 in experiment [1] and in experiment [2] was 50 to 100% each time.
With `COc1cc(C)c(/N=C(/N/N=C/c2ccc(-c3ncn(-c4ccc(OC(F)(F)F)cc4)n3)cc2)SCOC(=O)C(C)OCC(F)(F)F)c(C)c1` (stereo not drawn) [Compound 38C], the pest or weed control at 50 µg/cm2, 50 µg/cm2 in experiment [1] and in experiment [2] was 50 to 100% throughout.
For `COc1ccccc1N1CCCS/C1=N\N=C\c1ccc(-c2ncn(-c3ccc(OC(F)(F)F)cc3)n2)cc1` [Compound 191C], the pest or weed control at 50 µg/cm2, 50 µg/cm2 in experiment [1] and in experiment [2] was 50 to 100% in each case.
With `Cc1ccccc1N1CCS/C1=N\N=C\c1ccc(-c2ncn(-c3ccc(OC(F)(F)F)cc3)n2)cc1` [Compound 141C], the pest or weed control at 50 µg/cm2, 50 µg/cm2 in experiment [1] and in experiment [2] was 50 to 100% each time.
Regarding `CCC(C)c1ccccc1N1/C(=N/N=C/c2ccc(-c3ncn(-c4ccc(OC(F)(F)F)cc4)n3)cc2)SCCC1C` (stereo not drawn) [Compound 220C], the pest or weed control at 50 µg/cm2, 50 µg/cm2 in experiment [1] and in experiment [2] was 50 to 100% each time.
In the case of `CC(C)=Cc1ccccc1N1CCCS/C1=N\N=C\c1ccc(-c2ncn(-c3ccc(OC(F)(F)F)cc3)n2)cc1` [Compound 197C], the pest or weed control at 50 µg/cm2, 50 µg/cm2 in experiment [1] and in experiment [2] was 50 to 100% in each case.
As for `FC(F)(F)Oc1ccc(-n2cnc(-c3ccc(/C=N/N=C4\SCCN4c4c(Cl)cccc4C(F)(F)F)cc3)n2)cc1` [Compound 149C], the pest or weed control at 50 µg/cm2, 50 µg/cm2 in experiment [1] and in experiment [2] was 50 to 100% in each case.
On to `Cc1cccc(C)c1/N=C(/N/N=C/c1ccc(-c2ncn(-c3ccc(OC(F)(F)F)cc3)n2)cc1)SCc1ccccc1F` [Compound 11C], for which the pest or weed control at 50 µg/cm2, 50 µg/cm2 in experiment [1] and in experiment [2] was 50 to 100% each time.
